Reference: patent US20240082431A1, “METALLOHYDROPORPHYRINS FOR PHOTOACOUSTIC IMAGING” (NIRvana Sciences, Inc., priority 2021, published 2024)

Assay: Photoacoustic imaging of dyes in agar phantoms (VEVO LAZR 2100, PA scanning mode 680-900 nm)
Type: physicochemical
Details: agar phantom, 63 μM B107, 50 μM ICG in DMF
Description: Indocyanine Green (ICG), was obtained from Sigma-Aldrich (Catalogue No. I2633; Sigma-Aldrich Corp., St. Louis, Missouri, United States of America). The nickel bacteriochlorin B107 was prepared as described in Sun et al., 2013 and Chen et al, 2012. Each dye was dissolved in N,N-dimethylformamide (DMF) at the desired concentrations prior to the imaging experiments. Molds for preparing agar phantoms were typically 90 mm diameter glass Petri dishes.
A highly purified agar powder (Catalogue No. A7921; Sigma-Aldrich Corp., St. Louis, Missouri, United States of America) was dissolved in water (Reagent Grade, Type I) to a final concentration of 2.0% and heated to the melting temperature of 95° C. in a microwave oven. […] The bottle containing agar was held at 75-85° C. for 1-3 hours using a standard hot plate and a double boiler to avoid scorching (which causes a detectable increase in the absorption coefficient). This waiting period at an elevated temperature allows the slow release of air bubbles and produces an agar solution with negligible absorption and very low turbidity. […]
Photoacoustic imaging was performed using a VEVO® LAZR^2100 imaging system (VisualSonics, Inc., Toronto, Ontario, Canada) equipped with software version 1.7.2. […] The tubing and its associated image regions were isolated by ultrasound and PA signals for PA intensity quantitation. […]

Max (nm) of PAI signal (depth 3 mm): 790 nm
Max (nm) of PAI signal (depth 6 mm): 795 nm
Structure (SMILES): CC1(C)C(/C=C/C=C/C=C/C=C2\N(CCCCS(=O)(=O)O)c3ccc4ccccc4c3C2(C)C)=[N+](CCCCS(=O)(=O)[O-])c2ccc3ccccc3c21 [ICG, Indocyanine Green]
